SMILES	melting point [°C]
CCCCCCCCNc1ccc(-c2cc3ccccc3o2)cc1	87 to 90
S=c1nc2ccc(Br)cn2c(=S)n1-c1ccc(Br)cn1	77
CCOC(=O)C[C@@H]1CCC/C1=C\Cc1c(O)c2c(c(C)c1CC)COC2=O	95 to 95.7
CCOC(=O)C1=C(COCc2nc(CCN3C(=O)c4ccccc4C3=O)cs2)NC(C)=C(C(=O)OC)C1c1ccccc1Cl (configuration not stated)	156 to 157
COC(=O)c1nnn(Cc2ccccc2F)c1C(=O)OC	203 to 205
CS(=O)(=O)c1ccccc1C1CCCC2(C1)C(=O)Nc1ccccc12 (configuration not stated)	190 to 191
CC1=C(C(=O)OCc2ccccc2)C(c2cccc(Cl)c2Cl)C(C(=O)OCc2ccccc2)=C(C)N1	131 to 132
CN1C[C@@H]2C[C@H]1CN2C(=O)N1CCC(c2[nH]nc3c2C(=O)c2c(NC(=O)NN4CCOCC4)cccc2-3)CC1	224 to 225
Nc1ccccc1NC(=O)Nc1ccc(-c2ccc(C(=O)N3CCN4CCC3CC4)o2)cc1	174
COc1cc(O)c(CN(CCc2ccc([N+](=O)[O-])cc2)C(=O)OC(C)(C)C)c(OC)c1	134
O=C(c1ccccc1Cl)c1cc(Cl)ccc1-n1ccnc1	146 to 148
COc1cc(OC)c2nc[nH]c(=O)c2c1	280 to 282
CS[C@@H]1CC[C@H](C(=O)O)Cc2onc(-c3ccc(Cl)cc3)c21 (relative stereo)	241 to 242
CC(C)C(NC=O)C(=O)O (configuration not stated)	143 to 145
Cc1cccc(Nc2nc3c(s2)CCc2[nH]ncc2-3)n1	280
CS(=O)c1ccc(C#N)cc1 (configuration not stated)	87 to 90
CC(C)OC1CCC(=O)N1 (configuration not stated)	68 to 71
CCCCc1ccc(C(O)=S)nc1	99
Cc1ccc(C2CC(=O)OC(=O)C2)cc1	160 to 162
COc1ccc(S(=O)(=O)N=[N+]=[N-])cc1	48 to 50
CC(C)(C)OC(=O)N[C@@H](Cc1cc(F)cc(F)c1)[C@H]1CO1	99

SMILES	melting point [°C]
CN(C)CC=CC(=O)Nc1cc2c(Nc3cc(Cl)c(Cl)cc3F)ncnc2cc1OCCOCCOCCOCCF	119 to 120
CCOC(=O)N1CCC(=C2c3ccccc3CCn3ncnc32)CC1	106
CC(=O)Nc1c(C(=O)C(C)(C)C)[nH]c2cc(Cl)ccc12	190 to 193
O=c1[nH]c2ncc(-c3ccccn3)nc2n1CC1CCCCC1	194 to 196
COc1ccc2c(-c3ccccc3)c([N+](=O)[O-])oc2c1	100 to 106
CNC(=O)C1=CC(CF)(CF)Oc2ccccc21	138 to 139
COC1OCC[C@@H]1NC(=O)[C@H](CC(C)C)NC(=O)[C@H](CC(C)C)NC(=O)c1ccc2c(c1)Nc1ccccc1O2 (some centres not stated)	178 to 179
CNC(=C[N+](=O)[O-])NCCSCc1nccc(NC(N)=NCC(F)(F)F)n1	154 to 157
Cc1noc(CC(=O)Oc2ccc(Br)cc2)n1	73 to 74
CNS(=O)(=O)c1cc(S(=O)(=O)NC)c(C(Cl)=C(Cl)Cl)cc1N	211 to 212
Cc1c(-c2ccc(OC3CCCC3)cc2)n(Cc2ccc(OCCO)cc2)c2ccc(OCc3ccccc3)cc12	129 to 131
ON=Cc1ccc2c(c1)ncn2-c1cccc(N2CCCCC2)c1	213 to 214
O=C(Cc1ncccn1)c1ccc(F)cc1F	86 to 88
OC(CCC1CCNCC1)c1cc(C2CCCCC2)nc2ccccc12 (configuration not stated)	190 to 191
CCCCCCCCCCCCOc1cc(CC#N)c(SC)cc1CC#N	100 to 102
O=S(=O)(Nc1cccnc1Nc1ccccc1)c1ccc(Cl)cc1	186 to 188
CCCSc1cc2c(c3c1OC(C)(C)C3)C(c1cccc(C(=O)OCC)c1)=NC(C)(C)C2	83 to 84
O=C(CCO)N1c2ccccc2CCC1CN1CCN(c2cccc3[nH]ccc23)CC1 (configuration not stated)	58 to 61
CC1=C(C#CC(C)C=CO)C(C)(C)CCC1=O (configuration not stated)	102 to 105
CCCOc1ccc(S(C)(=O)=O)cc1-c1nc2c(CC)n[nH]c2c(=O)[nH]1	276 to 277
CCOC(=O)C1=C(COCCNC(=O)c2cccnc2)NC(C)=C(C(=O)OC)C1c1ccccc1Cl (configuration not stated)	81 to 84

Further lines, results first:

melting point [°C]	SMILES
148 to 151	CCCCOc1c(\C(C)=C/C=C/C(C)=C/C(=O)O)cc(C(C)(C)C)cc1C(C)(C)C
120 to 122	COCc1nc2c(OCc3ccccc3)cccc2n1C
161	CCOCC(=O)OC1(C(=O)CO)CCC2C3CCC4=CC(=O)CCC4(C)C3C(O)CC21C (configuration not stated)
88 to 89	CCOC(=O)c1c(O)c2ccc(F)cc2c(=O)n1CC1CC1
107 to 109	CC(C)C[C@H](NC(=O)OC(C)(C)C)[C@@H](O)CC(=O)NN1CCN(c2cccc(C(F)(F)F)c2)CC1
248 to 249	Cc1ccc2nc(N3CC[C@@H](O)C3)ccc2c1NC(=O)CC1CCCCC1
88	CCOC(=O)Nc1ccc2c(c1)CC[C@H](CCC(F)(F)F)O2
97	OCCC1c2ccccc2-c2ccccc21
191 to 192	COc1c(Br)csc1C(=O)O
55	[N-]=[N+]=Nc1ccc(C(=O)OCCOC(=O)C[C@@H](C(=O)O)n2c3ccccc3c3ccccc32)cc1
103 to 104	CCN(CC)CCn1c(Cl)c(C(=O)NC)c2ccccc21
173 to 174	CC(C)NCC(O)COc1ccc2c(=O)cc(-c3cc(OCc4ccccc4)cc(OCc4ccccc4)c3)oc2c1 (configuration not stated)
120 to 122	O=C(CC1C2=C(CCCC2)C(=O)N1c1ccc(Cl)cc1)N1CCCCC1 (configuration not stated)
125 to 128	COc1cc2c(cc1C(F)(F)F)N(C(=O)Nc1cncc(-c3cnccc3C)c1)CC2
189 to 196	Nc1ccc2sc(-c3cccnc3)nc2c1
78 to 80	COc1ccc(N2CCN(CCC(O)COc3ccc(F)cc3)CC2)cc1 (configuration not stated)
197 to 198	CCCCc1nc2c(N)nc3ccccc3c2n1CCCNS(=O)(=O)c1ccc(C)cc1
188 to 191	CC(C)NC(Nc1cc(C(F)(F)F)cc(C(F)(F)F)c1)=C(C#N)S(C)(=O)=O
141 to 143	O=C1c2ccccc2C(=O)N1Cc1cnccn1
183 to 186	CN1C(=O)CC[C@]2(C)c3ccc(-c4nc5ccccc5[nH]4)cc3CC[C@@H]12
172	O=C(O)c1ccc(-c2nc(NCc3ccc4c(c3)OCO4)c3cc([N+](=O)[O-])sc3n2)cc1
95 to 96	CCC1(CCCCCBr)C(=O)Nc2cc(F)ccc21 (configuration not stated)
57 to 59	CCCCCCCCCCCCOC(=O)COCC(=O)O
169	COC(=O)c1c(SCc2ccc(OC)cc2)nc(C)n1Cc1cc2c(cc1Cl)OCO2
120 to 122	CCOC(=O)c1ncc(-c2ccc(Br)cc2)o1
66 to 68	COc1ccc(C(=O)c2cccn2C)cc1
96.6	OCc1cc(OCc2ccccc2)c(OCc2ccccc2)cn1
148 to 150	CC(=O)OC1CC(=O)N([Si](C)(C)C)C1 (configuration not stated)
166	CC(C)(C)c1cc(CCc2ccccc2NC(=O)NCCCC2CCCCC2)cc(C(C)(C)C)c1O
152 to 156	CCOCc1nc2c(N)nc3cc(-c4ccccc4)ccc3c2n1CC(C)(C)NC(=O)NC1CCCCC1
